Values of other authors as cited in patent publication US20220175673A1, “SURGICAL DEVICE” (Saint Anthony Biomedical, LLC, priority 2017, published 2022).

Legend:
[1] = tested on: MDR isolates (MRSA, E. faecium, K pneumoniae, E. aerogenes, E. coli and A. baumani); settings: 0.05% CHG, 1-minute exposure
[2] = tested on: Enterococcus, including E. faecalis and E. faecium; settings: vancomycin-susceptible and vancomycin-resistant strains
[3] = tested on: Epidermophyton occosum, Microsporum gypseum, M canis, Trichophyton mentagrophytes
[4] = tested on: Staphylococcus aureus, S. epidermidis, S. haemolyticus, S. hominis, S. simulans; settings: both oxacillin-resistant and oxacillin-susceptible staphylococci
[5] = tested on: Candida albicans, C. dubliniensis, C. glabrata, C. gullermondii, C. pseudotropicalis, C. krusei, C. lusitaniae, C. tropicalis
[6] = tested on: CMV, HIV, HSV-1, HSV-2, influenza virus, parainfluenza virus, variola virus; settings: viruses with a lipid component in outer coat or an outer envelope
[7] = tested on: keratinocytes
[8] = tested on: Veillonella; settings: compared with other anaerobic bacteria
[9] = tested on: Streptococcus mutans, S. pyogenes, S. salivarius, S. sanguis; settings: Gram-positive aerobic bacteria
[10] = tested on: wound healing

Structure (SMILES): N=C(NCCCCCCNC(=N)NC(=N)Nc1ccc(Cl)cc1)NC(=N)Nc1ccc(Cl)cc1.O=C(O)[C@H](O)[C@@H](O)[C@H](O)[C@H](O)CO.O=C(O)[C@H](O)[C@@H](O)[C@H](O)[C@H](O)CO [CHG, chlorhexidine gluconate]
- log-reduction in MDR isolates [1]: greater than or equal to 99.99%

Structure (SMILES): [H]/N=C(\N/C(=N/[H])NCCCCCCNC(=N)NC(=N)Nc1ccc(Cl)cc1)Nc1ccc(Cl)cc1 [Chlorhexidine, chlorhexidine]
- activity [2]: active
- activity [3]: some activity
- activity [4]: active
- activity [5]: some activity
- antiviral activity [6]: appears to have antiviral activity
- effect on keratinocytes [7]: cytotoxic effect
- activity [8]: less active
- activity [9]: highly active
- effect on wound healing [10]: inhibitory effect
